Toxic doses and inconclusive results are not listed.

We go through 17 molecules from PubChem BioAssay AID256 (DTP/NCI, 2004).

The experiment deals with CD2F1 mice, L1210 leukemia ip, survival T/C. As to the kind of experiment: NCI In Vivo Anticancer Drug Screen. Data for tumor model L1210 Leukemia (intraperitoneal) in CD2F1 (CDF1) mice. To be noted: higher = longer survival. In short, it runs like this:
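Activity against a transplanted murine tumor was judged by comparing the compound group with a vehicle group. The outcome in the treated animals was divided by that in the controls.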

[1] abbreviates: endpoint: mean survival time, dose: 100.0 mg/kg/injection, schedule: Q04DX003 (ip), vehicle: saline with Tween-80.
Where [2] appears, read: endpoint: mean survival time, dose: 200.0 mg/kg/injection, schedule: Q04DX003 (ip), vehicle: saline with Tween-80.
The mark [3] stands for this setting: endpoint: mean survival time, dose: 400.0 mg/kg/injection, schedule: Q04DX003 (ip), vehicle: saline with Tween-80.
Setting [4] is: endpoint: mean survival time, dose: 100.0 mg/kg/injection, schedule: Q01DX001 (ip), vehicle: saline with Tween-80.
Where [5] appears, read: endpoint: mean survival time, dose: 200.0 mg/kg/injection, schedule: Q01DX001 (ip), vehicle: saline with Tween-80.
The mark [6] stands for this setting: endpoint: mean survival time, dose: 400.0 mg/kg/injection, schedule: Q01DX001 (ip), vehicle: saline with Tween-80.
[7] abbreviates: endpoint: mean survival time, dose: 400.0 mg/kg/injection, schedule: Q01DX001 (ip), vehicle: saline.
Setting [8] is: endpoint: mean survival time, dose: 100.0 mg/kg/injection, schedule: Q01DX001 (ip), vehicle: saline.
Where [9] appears, read: endpoint: mean survival time, dose: 200.0 mg/kg/injection, schedule: Q01DX001 (ip), vehicle: saline.

Turning to `N#CC(C#N)=Cc1cc2ccccc2c2ccccc12`, the T/C by setting is: under setting [1], 109 % of control; under setting [2], 97 % of control; under setting [3], 101 % of control.

As for `CS(=O)(=O)OCCN(CCOS(C)(=O)=O)c1ccc(N=O)c(Cl)c1`, under setting [1], the T/C is 124 % of control.

In the case of `CCOc1cccc(Cc2cn(Cc3ccc(NC(=O)c4cccc(S(=O)(=O)F)c4)cc3)c(=O)[nH]c2=O)c1`, the T/C was 94 % of control (endpoint: mean survival time, dose: 75.0 mg/kg/injection, schedule: Q01DX001 (ip), vehicle: saline with Tween-80); 89 % of control (endpoint: mean survival time, dose: 150.0 mg/kg/injection, schedule: Q01DX001 (ip), vehicle: saline with Tween-80); 94 % of control (endpoint: mean survival time, dose: 300.0 mg/kg/injection, schedule: Q01DX001 (ip), vehicle: saline with Tween-80).

As for `COC1=C(c2ccccc2)/C(=C/c2ccccc2)OC1=O`, the T/C was 104 % of control under setting [4], 96 % of control under setting [5] and 93 % of control under setting [6].

As for `NS(=O)(=O)c1ccc(SSc2ccc(S(N)(=O)=O)cc2[N+](=O)[O-])c([N+](=O)[O-])c1`, the T/C reads like this: (endpoint: mean survival time, dose: 12.5 mg/kg/injection, schedule: Q01DX009 (ip), vehicle: other) 95 % of control; (endpoint: mean survival time, dose: 25.0 mg/kg/injection, schedule: Q01DX009 (ip), vehicle: other) 95 % of control; (endpoint: mean survival time, dose: 50.0 mg/kg/injection, schedule: Q01DX009 (ip), vehicle: other) 96 % of control; (endpoint: mean survival time, dose: 100.0 mg/kg/injection, schedule: Q01DX009 (ip), vehicle: other) 98 % of control; (endpoint: mean survival time, dose: 200.0 mg/kg/injection, schedule: Q01DX009 (ip), vehicle: other) 95 % of control.

With `O=C(OCc1ccccc1)c1cc([N+](=O)[O-])c(Cl)c([N+](=O)[O-])c1`, the T/C is, setting by setting: under setting [4], 101 % of control; (endpoint: mean survival time, dose: 100.0 mg/kg/injection, schedule: Q01DX009 (ip), vehicle: saline with Tween-80) 97 % of control; under setting [5], 97 % of control; (endpoint: mean survival time, dose: 200.0 mg/kg/injection, schedule: Q01DX009 (ip), vehicle: saline with Tween-80) 98 % of control; under setting [6], 98 % of control.

On to `N#C/C(=C\c1ccc(-c2ccccc2)cc1)c1ccc([N+](=O)[O-])cc1`, for which the T/C was 86 % of control under setting [2] and 94 % of control under setting [3].

For the molecule `O=S(=O)(N(c1ccccc1)S(=O)(=O)C(F)(F)F)C(F)(F)F`, the T/C is, setting by setting: (endpoint: mean survival time, dose: 50.0 mg/kg/injection, schedule: Q01DX009 (ip), vehicle: Klucel (hydroxypropylcellulose) (HPC)) 91 % of control; (endpoint: mean survival time, dose: 100.0 mg/kg/injection, schedule: Q01DX009 (ip), vehicle: Klucel (hydroxypropylcellulose) (HPC)) 88 % of control; (endpoint: mean survival time, dose: 200.0 mg/kg/injection, schedule: Q01DX009 (ip), vehicle: Klucel (hydroxypropylcellulose) (HPC)) 88 % of control.

As for `O=C(COc1ccccc1)NCc1ccccc1Cl`, the T/C under setting [1] is 100 % of control, the T/C under setting [2] is 103 % of control and the T/C under setting [3] is 91 % of control.

As for `c1cc(CSc2ncnc3nc[nH]c23)ccn1`, the T/C is 118 % of control (endpoint: mean survival time, dose: 178.0 mg/kg/injection, schedule: Q01DX001 (ip), vehicle: saline); 115 % of control (endpoint: mean survival time, dose: 267.0 mg/kg/injection, schedule: Q01DX001 (ip), vehicle: saline); 119 % of control under setting [7].

Turning to `O=C(O)c1ccccc1.[Pb]`, the T/C under setting [8] is 94 % of control, the T/C under setting [9] was 102 % of control and the T/C under setting [7] is 96 % of control.

Turning to `CN1C2C=C(c3ccccc3)C(Br)C1CC2` (stereo unspecified), the T/C (endpoint: mean survival time, dose: 20.0 mg/kg/injection, schedule: Q01DX009 (ip), vehicle: saline) was 103 % of control; the T/C (endpoint: mean survival time, dose: 40.0 mg/kg/injection, schedule: Q01DX009 (ip), vehicle: saline) was 112 % of control; the T/C (endpoint: mean survival time, dose: 80.0 mg/kg/injection, schedule: Q01DX009 (ip), vehicle: saline) was 110 % of control.

Take `CN1C(=O)C2C(N=C(c3ccccc3)N2O)N(C)C1=O` (stereo unspecified): the T/C (endpoint: mean survival time, dose: 12.5 mg/kg/injection, schedule: Q01DX005 (ip), vehicle: other) was 93 % of control; the T/C (endpoint: mean survival time, dose: 25.0 mg/kg/injection, schedule: Q01DX005 (ip), vehicle: other) is 93 % of control; the T/C (endpoint: mean survival time, dose: 50.0 mg/kg/injection, schedule: Q01DX005 (ip), vehicle: other) is 90 % of control; the T/C (endpoint: mean survival time, dose: 100.0 mg/kg/injection, schedule: Q01DX005 (ip), vehicle: other) was 97 % of control; the T/C (endpoint: mean survival time, dose: 200.0 mg/kg/injection, schedule: Q01DX005 (ip), vehicle: other) was 98 % of control.

On to `CNC(=O)ON=C(c1ccccc1)c1ccccc1`, for which the T/C is, setting by setting: under setting [8], 98 % of control; under setting [9], 104 % of control; under setting [7], 102 % of control.

`C[C@@]1(CO)[C@H](O)CC[C@@]2(C)[C@H]1CC[C@H]1C[C@@H]3C[C@@]12CC[C@@]3(O)COC(=O)CN`: the T/C (endpoint: median survival time, dose: 0.2 mg/kg/injection, schedule: Q01DX009 (ip), vehicle: saline + alcohol) is 100 % of control; the T/C (endpoint: median survival time, dose: 0.4 mg/kg/injection, schedule: Q01DX009 (ip), vehicle: saline + alcohol) was 106 % of control; the T/C (endpoint: median survival time, dose: 0.8 mg/kg/injection, schedule: Q01DX009 (ip), vehicle: saline + alcohol) was 107 % of control; the T/C (endpoint: median survival time, dose: 1.6 mg/kg/injection, schedule: Q01DX009 (ip), vehicle: saline + alcohol) is 102 % of control; the T/C (endpoint: median survival time, dose: 5.0 mg/kg/injection, schedule: Q03HX027 (ip), vehicle: saline + alcohol) was 101 % of control; the T/C (endpoint: median survival time, dose: 6.25 mg/kg/injection, schedule: Q01DX009 (ip), vehicle: saline + alcohol) is 105 % of control. Also, the T/C by setting is: (endpoint: median survival time, dose: 10.0 mg/kg/injection, schedule: Q03HX027 (ip), vehicle: saline + alcohol) 109 % of control; (endpoint: median survival time, dose: 12.5 mg/kg/injection, schedule: Q01DX009 (ip), vehicle: saline + alcohol) 106 % of control; (endpoint: median survival time, dose: 20.0 mg/kg/injection, schedule: Q03HX027 (ip), vehicle: saline + alcohol) 116 % of control; (endpoint: median survival time, dose: 25.0 mg/kg/injection, schedule: Q01DX005 (ip), vehicle: saline) 112 % of control; (endpoint: median survival time, dose: 25.0 mg/kg/injection, schedule: Q01DX009 (ip), vehicle: saline + alcohol) 107 % of control; (endpoint: median survival time, dose: 36.0 mg/kg/injection, schedule: Q01DX005 (ip), vehicle: saline) 115 % of control. For the same molecule, the T/C by setting is: (endpoint: median survival time, dose: 36.0 mg/kg/injection, schedule: Q01DX009 (ip), vehicle: saline) 110 % of control; (endpoint: median survival time, dose: 50.0 mg/kg/injection, schedule: Q01DX005 (ip), vehicle: saline) 116 % of control; (endpoint: median survival time, dose: 50.0 mg/kg/injection, schedule: Q01DX009 (ip), vehicle: saline + alcohol) 116 % of control; (endpoint: median survival time, dose: 60.0 mg/kg/injection, schedule: Q01DX005 (ip), vehicle: saline) 116 % of control; (endpoint: median survival time, dose: 60.0 mg/kg/injection, schedule: Q01DX009 (ip), vehicle: saline) 110 % of control; (endpoint: median survival time, dose: 100.0 mg/kg/injection, schedule: Q01DX005 (ip), vehicle: saline) 122 % of control. The T/C by setting is: (endpoint: median survival time, dose: 100.0 mg/kg/injection, schedule: Q01DX009 (ip), vehicle: saline) 151 % of control; (endpoint: median survival time, dose: 166.6 mg/kg/injection, schedule: Q01DX009 (ip), vehicle: saline) 153 % of control; (endpoint: median survival time, dose: 12.5 micrograms/kg/injection, schedule: Q01DX009 (ip), vehicle: saline + alcohol) 103 % of control; (endpoint: median survival time, dose: 25.0 micrograms/kg/injection, schedule: Q01DX009 (ip), vehicle: saline + alcohol) 103 % of control; (endpoint: median survival time, dose: 50.0 micrograms/kg/injection, schedule: Q01DX009 (ip), vehicle: saline + alcohol) 103 % of control; (endpoint: median survival time, dose: 100.0 micrograms/kg/injection, schedule: Q01DX009 (ip), vehicle: saline + alcohol) 101 % of control. In addition, the T/C (endpoint: median survival time, dose: 200.0 micrograms/kg/injection, schedule: Q01DX009 (ip), vehicle: saline + alcohol) is 102 % of control.

Consider `BrCC1OCCCO1`, for which the T/C is, setting by setting: (endpoint: mean survival time, dose: 12.5 mg/kg/injection, schedule: Q01DX009 (ip), vehicle: saline with Tween-80) 105 % of control; (endpoint: mean survival time, dose: 25.0 mg/kg/injection, schedule: Q01DX009 (ip), vehicle: saline with Tween-80) 111 % of control; (endpoint: mean survival time, dose: 50.0 mg/kg/injection, schedule: Q01DX009 (ip), vehicle: saline with Tween-80) 115 % of control.

Turning to `O=C(O)COC(C[N+](=O)[O-])C(Cl)(Cl)Cl` (stereo unspecified), the T/C under setting [1] is 93 % of control, the T/C under setting [2] is 104 % of control and the T/C under setting [3] was 98 % of control.
